The structures appear in SMILES notation. Active and inactive are the calls of the source. The calls are words filed in the database; no cut-off is given here.

The record followed here is ChEMBL document CHEMBL3593202, “Design, Synthesis, and Characterization of 3-(Benzylidene)indolin-2-one Derivatives as Ligands for α-Synuclein Fibrils” (J Med Chem, 2015).

The target of one series is T1, Microtubule-associated protein tau (Homo sapiens, UniProt P10636). Briefly: Binding affinity human recombinant tau (243 to 375) expressed in Escherichia coli BL21(DE3)RIL after 1 hr by scintillation counting.
T1 sequence (P10636 whole entry): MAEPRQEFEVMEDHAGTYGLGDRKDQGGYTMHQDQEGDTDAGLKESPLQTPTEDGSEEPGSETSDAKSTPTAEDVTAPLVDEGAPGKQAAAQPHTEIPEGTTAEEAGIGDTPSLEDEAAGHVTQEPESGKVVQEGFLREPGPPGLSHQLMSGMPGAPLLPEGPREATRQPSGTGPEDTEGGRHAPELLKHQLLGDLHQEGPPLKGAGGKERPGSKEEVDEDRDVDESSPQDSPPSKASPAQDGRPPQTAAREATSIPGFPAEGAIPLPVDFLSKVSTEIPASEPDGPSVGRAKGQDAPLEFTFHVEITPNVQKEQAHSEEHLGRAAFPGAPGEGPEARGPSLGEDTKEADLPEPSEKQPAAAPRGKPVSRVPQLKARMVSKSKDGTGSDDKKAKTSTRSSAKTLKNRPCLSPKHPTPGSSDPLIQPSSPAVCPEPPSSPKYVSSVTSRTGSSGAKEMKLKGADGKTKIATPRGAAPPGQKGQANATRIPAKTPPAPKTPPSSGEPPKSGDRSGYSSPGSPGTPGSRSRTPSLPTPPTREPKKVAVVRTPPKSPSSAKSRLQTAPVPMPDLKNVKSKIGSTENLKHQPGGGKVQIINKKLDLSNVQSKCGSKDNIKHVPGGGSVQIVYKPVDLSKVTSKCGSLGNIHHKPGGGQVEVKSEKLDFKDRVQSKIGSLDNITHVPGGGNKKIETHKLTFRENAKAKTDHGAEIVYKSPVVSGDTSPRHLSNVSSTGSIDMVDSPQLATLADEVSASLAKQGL
Details: not given
Take `O=C1/C(=C\C=C\c2ccc([N+](=O)[O-])cc2)c2ccccc2N1Cc1ccc(OCC[18F])cc1`: the dissociation constant Kd stood at 50 nM.

The next series concerns the target T1, Microtubule-associated protein tau. The series is described as follows: Displacement of Thio-T from human recombinant tau (243 to 375) expressed in Escherichia coli BL21(DE3)RIL after 1.5 hrs by fluorescence assay.
Details: not given
As to `O=C1Nc2ccccc2/C1=C/c1ccc([N+](=O)[O-])cc1`, the Ki turned out to be 362 nM.

Consider `CN(C)c1ccc(/C=C/C=C2\C(=O)N(Cc3ccc([N+](=O)[O-])cc3)c3ccccc32)cc1` (mixture of isomers), for which the Ki turned out to be 90 nM.

For `COc1ccc(CN2C(=O)/C(=C\C=C\c3ccc(N(C)C)cc3)c3cccnc32)cc1` (mixture of isomers), the Ki stood at 204 nM.

Regarding `O=C1/C(=C\C=C\c2ccc([N+](=O)[O-])cc2)c2ccccc2N1Cc1ccc(OCCF)cc1`, the Ki worked out at 80.1 nM.

Turning to `O=C1Nc2ccccc2/C1=C/C=C/c1ccc([N+](=O)[O-])cc1`, the Ki was found to be 27.1 nM.

Turning to `CN(C)c1ccc(/C=C2\C(=O)Nc3ccccc32)cc1` (mixture of isomers), the inhibition constant (Ki) came to 261 nM.

Take `CN(C)c1ccc(/C=C2\C(=O)N(Cc3ccccc3)c3ccccc32)cc1`: the Ki stood at 798 nM.

Turning to `CN(C)c1ccc(/C=C/C=C2\C(=O)N(Cc3ccc(N)cc3)c3ccccc32)cc1` (mixture of isomers), the Ki stood at 131 nM.

As to `CCOC(=O)N1C(=O)/C(=C\c2ccc(N(C)C)cc2)c2ccccc21` (mixture of isomers), the Ki is 1120 nM.

With `O=C1/C(=C/C=C/c2ccc([N+](=O)[O-])cc2)c2ccccc2N1Cc1ccccc1`, the Ki is 590 nM.

On to `CN(C)c1ccc(/C=C2\C(=O)N(Cc3ccncc3)c3ccccc32)cc1`, for which the Ki worked out at 364 nM.

For the compound `Nc1ccc(/C=C/C=C2\C(=O)Nc3ccccc32)cc1` (mixture of isomers), the Ki came to 38.3 nM.

For `CN(C)c1ccc(/C=C/C=C2\C(=O)Nc3ccccc32)cc1` (mixture of isomers), the Ki was found to be 53.7 nM.

Take `CN(C)c1ccc(/C=C2\C(=O)Nc3ncccc32)cc1` (mixture of isomers): the Ki came out at 191 nM.

Regarding `COc1cccc(CN2C(=O)/C(=C\C=C\c3ccc([N+](=O)[O-])cc3)c3ccccc32)c1`, the Ki was 229 nM.

Regarding `COc1ccc(CN2C(=O)/C(=C\c3ccc(N(C)C)cc3)c3cccnc32)cc1` (mixture of isomers), the Ki was 853 nM.

Turning to `O=C1Nc2ccccc2/C1=C\C=C\c1ccc([N+](=O)[O-])cc1`, the Ki is 209 nM.

For `CN(C)c1ccc(/C=C/C=C2\C(=O)N(C)c3ccccc32)cc1` (mixture of isomers), the Ki worked out at 229 nM.

On to `COc1ccc(/C=C/C=C2\C(=O)Nc3ccccc32)cc1` (mixture of isomers), for which the Ki came out at 169 nM.

Turning to `CN(C)c1ccc(/C=C/C=C2\C(=O)N(Cc3ccncc3)c3ccccc32)cc1`, the Ki is 188 nM.

On to `O=C1/C(=C\C=C\c2ccccc2)c2ccccc2N1Cc1ccccc1` (mixture of isomers), for which the Ki worked out at 682 nM.

Turning to `O=C1Nc2ccccc2/C1=C\c1ccc([N+](=O)[O-])cc1`, the Ki turned out to be 528 nM.

The next series addresses T2, Alpha-synuclein (Homo sapiens, UniProt P37840). The series is described as follows: Binding affinity to recombinant alpha-synuclein (unknown origin) expressed in Escherichia coli after 1 hr by scintillation counting.
Details: not given
On to `O=C1/C(=C\C=C\c2ccc([N+](=O)[O-])cc2)c2ccccc2N1Cc1ccc(OCC[18F])cc1`, for which the Kd came out at 8.9 nM.

The next series deals with T3, Amyloid-beta precursor protein (Homo sapiens, UniProt P05067). The series is described as follows: Binding affinity amyloid beta (1 to 42) (unknown origin) expressed in Escherichia coli after 1 hr by scintillation counting.
T3 sequence (P05067 whole entry): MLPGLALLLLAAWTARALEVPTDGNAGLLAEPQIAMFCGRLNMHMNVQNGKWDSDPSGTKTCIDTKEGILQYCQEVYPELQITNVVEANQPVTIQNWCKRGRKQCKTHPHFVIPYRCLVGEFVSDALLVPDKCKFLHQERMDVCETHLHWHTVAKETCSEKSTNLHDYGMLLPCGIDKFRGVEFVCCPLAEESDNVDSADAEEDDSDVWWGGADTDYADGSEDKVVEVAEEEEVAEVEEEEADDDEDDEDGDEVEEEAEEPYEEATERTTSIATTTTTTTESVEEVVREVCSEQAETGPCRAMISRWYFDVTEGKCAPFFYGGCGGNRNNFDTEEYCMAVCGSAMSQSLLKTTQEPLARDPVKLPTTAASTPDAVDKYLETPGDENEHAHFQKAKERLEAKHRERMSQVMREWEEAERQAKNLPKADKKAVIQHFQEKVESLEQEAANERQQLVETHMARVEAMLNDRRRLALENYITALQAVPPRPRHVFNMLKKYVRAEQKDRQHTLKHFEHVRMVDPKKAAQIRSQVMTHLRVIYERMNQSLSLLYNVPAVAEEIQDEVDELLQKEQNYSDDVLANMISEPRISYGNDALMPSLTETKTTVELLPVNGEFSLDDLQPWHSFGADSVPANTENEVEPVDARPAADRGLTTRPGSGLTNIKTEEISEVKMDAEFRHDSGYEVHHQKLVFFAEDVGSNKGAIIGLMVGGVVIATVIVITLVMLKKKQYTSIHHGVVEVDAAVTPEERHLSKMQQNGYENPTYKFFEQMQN
Details: not given
For `O=C1/C(=C\C=C\c2ccc([N+](=O)[O-])cc2)c2ccccc2N1Cc1ccc(OCC[18F])cc1`, the Kd was 271 nM.

For a further series, the target named is T3, Amyloid-beta precursor protein. Briefly: Displacement of Thio-T from synthetic amyloid beta (1 to 42) (unknown origin) after 1.5 hrs by fluorescence assay.
Details: not given
As to `O=C1Nc2ccccc2/C1=C/c1ccc([N+](=O)[O-])cc1`, the Ki was determined as 325 nM.

Take `CN(C)c1ccc(/C=C/C=C2\C(=O)N(Cc3ccc([N+](=O)[O-])cc3)c3ccccc32)cc1` (mixture of isomers): the Ki worked out at 92.4 nM.

Turning to `COc1ccc(CN2C(=O)/C(=C\C=C\c3ccc(N(C)C)cc3)c3cccnc32)cc1` (mixture of isomers), the Ki amounted to 107 nM.

For the compound `O=C1/C(=C\C=C\c2ccc([N+](=O)[O-])cc2)c2ccccc2N1Cc1ccc(OCCF)cc1`, the affinity, expressed as Ki, was 142 nM.

With `O=C1Nc2ccccc2/C1=C/C=C/c1ccc([N+](=O)[O-])cc1`, the affinity corresponds to a Ki of 36.2 nM.

In the case of `CN(C)c1ccc(/C=C2\C(=O)Nc3ccccc32)cc1` (mixture of isomers), the Ki is 91.6 nM.

`CN(C)c1ccc(/C=C2\C(=O)N(Cc3ccccc3)c3ccccc32)cc1` displayed a Ki of 260 nM.

`CN(C)c1ccc(/C=C/C=C2\C(=O)N(Cc3ccc(N)cc3)c3ccccc32)cc1` (mixture of isomers): the affinity, expressed as Ki, was 98.9 nM.

`CCOC(=O)N1C(=O)/C(=C\c2ccc(N(C)C)cc2)c2ccccc21` (mixture of isomers) displayed a Ki of 140 nM.

Consider `O=C1/C(=C/C=C/c2ccc([N+](=O)[O-])cc2)c2ccccc2N1Cc1ccccc1`, for which the Ki was determined as 235 nM.

Compound `Nc1ccc(/C=C/C=C2\C(=O)Nc3ccccc32)cc1` (mixture of isomers) returned a Ki of 50.8 nM.

The compound `CN(C)c1ccc(/C=C/C=C2\C(=O)Nc3ccccc32)cc1` (mixture of isomers) registered a Ki of 27.6 nM.

For the compound `CN(C)c1ccc(/C=C2\C(=O)Nc3ncccc32)cc1` (mixture of isomers), the Ki is 40 nM.

`COc1cccc(CN2C(=O)/C(=C\C=C\c3ccc([N+](=O)[O-])cc3)c3ccccc32)c1` came in with a Ki of 110 nM.

Compound `COc1ccc(CN2C(=O)/C(=C\c3ccc(N(C)C)cc3)c3cccnc32)cc1` (mixture of isomers) came in with a Ki of 113 nM.

In turn, `O=C1Nc2ccccc2/C1=C\C=C\c1ccc([N+](=O)[O-])cc1` yielded a Ki of 60 nM.

As for `CN(C)c1ccc(/C=C/C=C2\C(=O)N(C)c3ccccc32)cc1` (mixture of isomers), the Ki came to 56 nM.

Compound `COc1ccc(/C=C/C=C2\C(=O)Nc3ccccc32)cc1` (mixture of isomers) came in with a Ki of 126 nM.

Compound `O=C1/C(=C\C=C\c2ccccc2)c2ccccc2N1Cc1ccccc1` (mixture of isomers) came in with a Ki of 703 nM.

In turn, `O=C1Nc2ccccc2/C1=C\c1ccc([N+](=O)[O-])cc1` displayed a Ki of 439 nM.

System in the next series: not listed separately
Briefly: Lipophilicity, log P of the compound. The class given is physicochemical. The settings on record: octanol/water.
Consider `O=C1/C(=C\C=C\c2ccc([N+](=O)[O-])cc2)c2ccccc2N1Cc1ccc(OCCF)cc1`, for which the logP amounted to 4.18.

Another series concerns the target T2, Alpha-synuclein. Briefly: Displacement of Thio-T from recombinant alpha-synuclein (unknown origin) expressed in Escherichia coli after 1.5 hrs by fluorescence assay.
Details: not given
Consider `O=C1Nc2ccccc2/C1=C/c1ccc([N+](=O)[O-])cc1`, for which the Ki was found to be 347 nM.

In the case of `CN(C)c1ccc(/C=C/C=C2\C(=O)N(Cc3ccc([N+](=O)[O-])cc3)c3ccccc32)cc1` (mixture of isomers), the Ki was determined as 4.2 nM.

Turning to `COc1ccc(CN2C(=O)/C(=C\C=C\c3ccc(N(C)C)cc3)c3cccnc32)cc1` (mixture of isomers), the Ki was 29.8 nM.

Turning to `O=C1/C(=C\C=C\c2ccc([N+](=O)[O-])cc2)c2ccccc2N1Cc1ccc(OCCF)cc1`, the Ki came out at 2.1 nM.

Regarding `O=C1Nc2ccccc2/C1=C/C=C/c1ccc([N+](=O)[O-])cc1`, the Ki is 14.6 nM.

For `CN(C)c1ccc(/C=C2\C(=O)Nc3ccccc32)cc1` (mixture of isomers), the Ki came out at 84.4 nM.

As for `CN(C)c1ccc(/C=C2\C(=O)N(Cc3ccccc3)c3ccccc32)cc1`, the Ki was 144 nM.

Take `CN(C)c1ccc(/C=C/C=C2\C(=O)N(Cc3ccc(N)cc3)c3ccccc32)cc1` (mixture of isomers): the Ki was found to be 43.6 nM.

Turning to `CCOC(=O)N1C(=O)/C(=C\c2ccc(N(C)C)cc2)c2ccccc21` (mixture of isomers), the Ki was 343 nM.

In the case of `O=C1/C(=C/C=C/c2ccc([N+](=O)[O-])cc2)c2ccccc2N1Cc1ccccc1`, the Ki was determined as 193 nM.

`CN(C)c1ccc(/C=C2\C(=O)N(Cc3ccncc3)c3ccccc32)cc1`: the Ki amounted to 150 nM.

In the case of `Nc1ccc(/C=C/C=C2\C(=O)Nc3ccccc32)cc1` (mixture of isomers), the Ki stood at 44.8 nM.

In the case of `CN(C)c1ccc(/C=C/C=C2\C(=O)Nc3ccccc32)cc1` (mixture of isomers), the Ki was 40.7 nM.

For the compound `CN(C)c1ccc(/C=C2\C(=O)Nc3ncccc32)cc1` (mixture of isomers), the Ki was found to be 124 nM.

`COc1cccc(CN2C(=O)/C(=C\C=C\c3ccc([N+](=O)[O-])cc3)c3ccccc32)c1`: the Ki was 3.8 nM.

As to `COc1ccc(CN2C(=O)/C(=C\c3ccc(N(C)C)cc3)c3cccnc32)cc1` (mixture of isomers), the inhibition constant Ki was found to be 79.5 nM.

As to `O=C1Nc2ccccc2/C1=C\C=C\c1ccc([N+](=O)[O-])cc1`, the Ki amounted to 211 nM.

Regarding `CN(C)c1ccc(/C=C/C=C2\C(=O)N(C)c3ccccc32)cc1` (mixture of isomers), the Ki stood at 63.7 nM.

On to `COc1ccc(/C=C/C=C2\C(=O)Nc3ccccc32)cc1` (mixture of isomers), for which the Ki is 61.1 nM.

For the compound `CN(C)c1ccc(/C=C/C=C2\C(=O)N(Cc3ccncc3)c3ccccc32)cc1`, the inhibitory constant (Ki) is 92 nM.

For `O=C1/C(=C\C=C\c2ccccc2)c2ccccc2N1Cc1ccccc1` (mixture of isomers), the Ki turned out to be 227 nM.

Take `O=C1Nc2ccccc2/C1=C\c1ccc([N+](=O)[O-])cc1`: the Ki was 622 nM.

In a further series the target is T3, Amyloid-beta precursor protein. Briefly: Binding affinity to amyloid beta in alzheimer's diseased human brain tissue at 5 uM after 20 mins by fluorescence microscopic analysis.
Details: not given
As for `CN(C)c1ccc(/C=C/C=C2\C(=O)Nc3ccccc32)cc1` (mixture of isomers), the outcome was Active.

In general, Kd refers to the equilibrium constant for the complex coming apart. What is called Ki is a measure of affinity in units of concentration, obtained from inhibition or displacement. In general, logP refers to the decadic logarithm of the partition coefficient of the neutral form, usually between octanol and water. Low readings indicate lower lipophilicity, high ones higher lipophilicity.
